{"source": "paper PMC3454376", "about": "“Salidroside Improves Behavioral and Histological Outcomes and Reduces Apoptosis via PI3K/Akt Signaling after Experimental Traumatic Brain Injury” (PLoS ONE, 2012)", "key": {"[1]": {"parameters": "method as in PMID 17631426", "conditions": "rats, cited from earlier work"}, "[2]": {"system": "mice subjected to controlled cortical impact injury", "test": "Brain water content (brain edema) after CCI", "format": "in vivo", "conditions": "day 1, vehicle 84.5±1.2%", "description": "All animal procedures were approved by the Animal Research Committee at Cheng Hsin General Hospital (Animal permit number […] 101-08), and all procedures complied with the Guide for the Care and Use of Laboratory Animals published by the US National Institutes of Health (NIH Publication No. 85-23, revised 1996). Animals were housed under a 12-h light/dark cycle and at constant temperature (21-25°C) and humidity (45-50%). They were allowed free access to pellet chow and water. TBI in mice was induced by a CCI injury model as previously described. Briefly, 8-week-old male C57BL/6 mice (weighing 22-25 g) were anesthetized through the use of intraperitoneal injection of sodium pentobarbital (65 mg/kg; Rhone Merieux, Harlow, UK) and placed in a stereotaxic frame. A 5 mm craniotomy was performed over the right parietal cortex, centered on the coronal suture and 0.1 mm lateral to the sagittal suture, and injury to dura was avoided. […] Body temperature was monitored throughout the surgery by a rectal probe; temperature was maintained at 37.0±0.5°C using a heated pad. […] To determine the optimal dose of salidroside, a pilot study was performed using 2 different doses (20 and 50 mg/kg) administered 10 min after injury, and neurological deficits and tissue damage were evaluated as the main outcomes. […]"}}, "note": "Like-named read-outs stand apart in the source and are kept apart here.", "data": [{"smiles": "OC[C@H]1O[C@@H](OCCc2ccc(O)cc2)[C@H](O)[C@@H](O)[C@@H]1O", "note": "[SALD, salidroside]", "values": [{"measurement": "mean elimination half-life (t1/2)", "setting": "[1]; intravenous administration", "value": "around 0.5 h"}, {"measurement": "mean elimination half-life (t1/2)", "setting": "[1]; oral administration", "value": "~1.1", "unit": "h"}, {"measurement": "brain water content, ipsilateral hemisphere", "setting": "[2]; 20 mg/kg ip 10 min after CCI, sham 80.7±0.6%, P<0.05", "value": "81.0±0.6", "unit": "%"}, {"measurement": "brain water content, ipsilateral hemisphere", "setting": "[2]; 50 mg/kg ip 10 min after CCI, not significant", "value": "82.2±1.1", "unit": "%"}]}]}
